Literature values, collected in patent US20080275015A1, “Formulation and Method for Treating Interstitial Cystitis and Related Bladder Conditions” (priority 2007, published 2008).

Settings: oral prescription for interstitial cystitis; standard dosing 100 mg three times daily

Substance: pentosan polysulfate sodium [Elmiron]
- cases in which treatment has been shown to be effective: 30%
